Laboratory results reported in PubChem BioAssay (NCI).
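1) Cells in 96-well plates. 2) Compound, 48 h, 5 concentrations. 3) Linear interpolation between surrounding doses. 4) Unreached endpoint = highest concentration. GI50 marks 50% less growth. TGI: concentration producing complete growth inhibition.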

What was measured:
Assay in all cases: NCI tumour cell line growth inhibition, 48 h
SF-268 CNS = system: SF-268 CNS
ACHN renal = system: ACHN renal
SF-295 CNS = system: SF-295 CNS
TK-10 renal = system: TK-10 renal
SNB-19 CNS = system: SNB-19 CNS
OVCAR-8 ovarian = system: OVCAR-8 ovarian
MOLT-4 leukemia = system: MOLT-4 leukemia
HT29 colon = system: HT29 colon
NCI-H226 lung = system: NCI-H226 lung
MCF7 breast = system: MCF7 breast

## COC(=O)Cc1cc(OC)c(OC)cc1Br
SF-268 CNS
  TGI: > 100 µM
ACHN renal
  TGI: > 100 µM
SF-295 CNS
  TGI: > 100 µM
TK-10 renal
  TGI: > 100 µM
SNB-19 CNS
  TGI: > 100 µM
OVCAR-8 ovarian
  TGI: > 100 µM
MOLT-4 leukemia
  TGI: > 100 µM
HT29 colon
  TGI: > 100 µM
NCI-H226 lung
  TGI: > 100 µM

## CC1=C(C(=O)NCc2ccccc2)C(c2ccc(C3C(C(=O)NCc4ccccc4)=C(C)NC(C)=C3C(=O)NCc3ccccc3)cc2)C(C(=O)NCc2ccccc2)=C(C)N1
SF-268 CNS
  TGI: 81.7 µM
ACHN renal
  TGI: 29.6 µM
SF-295 CNS
  TGI: 38.2 µM
TK-10 renal
  TGI: 37.8 µM
SNB-19 CNS
  TGI: 29.2 µM
OVCAR-8 ovarian
  TGI: 20.9 µM
MOLT-4 leukemia
  TGI: > 100 µM
HT29 colon
  TGI: 20.3 µM
NCI-H226 lung
  TGI: 33.7 µM

## O=C1OC(=O)c2c1c(-c1ccccc1)cn2-c1ccc(Cl)cc1
SF-268 CNS
  TGI: > 100 µM
ACHN renal
  TGI: > 100 µM
SF-295 CNS
  TGI: > 100 µM
TK-10 renal
  TGI: > 100 µM
SNB-19 CNS
  TGI: > 100 µM
OVCAR-8 ovarian
  TGI: > 100 µM
MOLT-4 leukemia
  TGI: > 100 µM
HT29 colon
  TGI: > 100 µM
NCI-H226 lung
  TGI: > 100 µM

## N#C/C(=C\c1ccccc1O)C(N)=O
SF-268 CNS
  TGI: > 100 µM
ACHN renal
  TGI: > 100 µM
SF-295 CNS
  TGI: > 100 µM
TK-10 renal
  TGI: > 100 µM
SNB-19 CNS
  TGI: > 100 µM
OVCAR-8 ovarian
  TGI: > 100 µM
MOLT-4 leukemia
  TGI: > 100 µM
HT29 colon
  TGI: > 100 µM
NCI-H226 lung
  TGI: > 100 µM

## C=C1C(=O)O[C@H]2[C@H]1CC/C(CNC(=O)/C=C/c1ccc(Br)cc1)=C\CC[C@@]1(C)O[C@@H]21
SF-268 CNS
  GI50: 1.78 µM
  TGI: 4.27 µM
ACHN renal
  GI50: 0.848 µM
  TGI: 2.08 µM
SF-295 CNS
  GI50: 2.16 µM
  TGI: 5.81 µM
TK-10 renal
  GI50: 1.24 µM
  TGI: 2.58 µM
SNB-19 CNS
  GI50: 1.61 µM
  TGI: 4.6 µM
OVCAR-8 ovarian
  GI50: 1.67 µM
  TGI: 5.75 µM
MOLT-4 leukemia
  GI50: 0.678 µM
  TGI: 4.25 µM
HT29 colon
  GI50: 0.622 µM
  TGI: 2.66 µM
NCI-H226 lung
  GI50: 2.24 µM
  TGI: 7.15 µM

## CC1=CC2CC(C)=C(CC[C@]3(C)CC[C@H]([C@@H](C)C(=O)O)OO3)C(C)(C)C2CC1 (stereo partly specified)
SF-268 CNS
  TGI: 3.24 µM
ACHN renal
  TGI: 2.64 µM
SF-295 CNS
  TGI: 2.67 µM
TK-10 renal
  TGI: 3.15 µM
SNB-19 CNS
  TGI: 3.08 µM
OVCAR-8 ovarian
  TGI: 1.31 µM
HT29 colon
  TGI: 0.429 µM
NCI-H226 lung
  TGI: 3.45 µM

## [O-]/[N+](=C\c1ccccc1)[C@H](COCc1ccccc1)c1ccccc1
SF-268 CNS
  TGI: > 100 µM
ACHN renal
  TGI: > 100 µM
SF-295 CNS
  TGI: > 100 µM
TK-10 renal
  TGI: > 100 µM
SNB-19 CNS
  TGI: > 100 µM
OVCAR-8 ovarian
  TGI: > 100 µM
MOLT-4 leukemia
  TGI: > 100 µM
HT29 colon
  TGI: > 100 µM

## N=C(c1ccccc1)N(c1ccccc1)c1ccccc1
SF-268 CNS
  TGI: > 100 µM
SF-295 CNS
  TGI: > 100 µM
TK-10 renal
  TGI: > 100 µM
SNB-19 CNS
  TGI: > 100 µM
OVCAR-8 ovarian
  TGI: > 100 µM
HT29 colon
  TGI: > 100 µM
NCI-H226 lung
  TGI: > 100 µM

## CC1=CCC[C@@]2(C)C(CC[C@@H]2C(C)/C=C/C(C)C)c2ccc(cc2C(=O)O)C[C@@H](O)CC1 (stereo partly specified)
SF-268 CNS
  TGI: 29.7 µM
ACHN renal
  TGI: 18.7 µM
SF-295 CNS
  TGI: 21.7 µM
TK-10 renal
  TGI: 25.1 µM
SNB-19 CNS
  TGI: 17.5 µM
OVCAR-8 ovarian
  TGI: 33.3 µM
MOLT-4 leukemia
  TGI: 28 µM
HT29 colon
  TGI: 17.6 µM
NCI-H226 lung
  TGI: 32.7 µM

## CCC1(C)NN=c2s/c(=C/c3ccc(OC)cc3)c(=O)n2N1 (stereo unspecified)
SF-268 CNS
  TGI: > 100 µM
ACHN renal
  TGI: > 100 µM
SF-295 CNS
  TGI: > 100 µM
TK-10 renal
  TGI: > 100 µM
SNB-19 CNS
  TGI: > 100 µM
OVCAR-8 ovarian
  TGI: > 100 µM
MOLT-4 leukemia
  TGI: > 100 µM
HT29 colon
  TGI: > 100 µM
NCI-H226 lung
  TGI: > 100 µM

## NS(=O)(=O)c1ccc(NC(=O)c2ccc(NC3=C(Cl)C(=O)N(Cc4ccccc4)C3=O)cc2)cc1
SF-268 CNS
  GI50: 7.25 µM
  TGI: > 100 µM
ACHN renal
  GI50: 13.7 µM
  TGI: 26.6 µM
SF-295 CNS
  GI50: 3.03 µM
  TGI: 17.8 µM
TK-10 renal
  GI50: > 100 µM
  TGI: > 100 µM
SNB-19 CNS
  GI50: > 100 µM
  TGI: > 100 µM
OVCAR-8 ovarian
  GI50: 10.2 µM
  TGI: > 100 µM
MCF7 breast
  GI50: 3.03 µM
  TGI: > 100 µM
HT29 colon
  GI50: 5.92 µM
  TGI: 17 µM
NCI-H226 lung
  GI50: 2.12 µM
  TGI: 5.91 µM

## CC1=C([Se]CC(OC(=O)[C@@H](CSSC(C)(C)C)NC(=O)OC(C)(C)C)C(=O)NC(C)(C)C)C(=O)c2ccccc2C1=O (stereo partly specified)
SF-268 CNS
  GI50: 1.96 µM
  TGI: 3.39 µM
ACHN renal
  GI50: 1.51 µM
  TGI: 2.84 µM
SF-295 CNS
  GI50: 1.22 µM
  TGI: 3.19 µM
TK-10 renal
  GI50: 1.6 µM
  TGI: 2.95 µM
SNB-19 CNS
  GI50: 0.451 µM
  TGI: 1.69 µM
OVCAR-8 ovarian
  GI50: 1.36 µM
  TGI: 2.73 µM
MCF7 breast
  GI50: 1.46 µM
  TGI: 3.12 µM
HT29 colon
  GI50: 2.3 µM
  TGI: 6.3 µM

## COc1cc(C(=O)OCCCCCCCCCCC[P+](c2ccccc2)(c2ccccc2)c2ccccc2)ccc1O
ACHN renal
  GI50: 1.46 µM
  TGI: 2.99 µM
TK-10 renal
  GI50: 1.65 µM
  TGI: 4.15 µM
OVCAR-8 ovarian
  GI50: 0.345 µM
  TGI: 1.53 µM
MOLT-4 leukemia
  GI50: 0.557 µM
  TGI: 4.31 µM

## CCC(C)CN1C(=O)NC(C)(Cc2ccccc2)C1=O (stereo unspecified)
SF-268 CNS
  TGI: > 100 µM
ACHN renal
  TGI: > 100 µM
SF-295 CNS
  TGI: > 100 µM
TK-10 renal
  TGI: > 100 µM
SNB-19 CNS
  TGI: > 100 µM
OVCAR-8 ovarian
  TGI: > 100 µM
HT29 colon
  TGI: > 100 µM
NCI-H226 lung
  TGI: > 100 µM

## O=C(Nc1c(O)[nH]c(=S)[nH]c1=O)c1ccccn1
SF-268 CNS
  TGI: > 100 µM
ACHN renal
  TGI: > 100 µM
SF-295 CNS
  TGI: > 100 µM
TK-10 renal
  TGI: > 100 µM
SNB-19 CNS
  TGI: > 100 µM
OVCAR-8 ovarian
  TGI: > 100 µM
MOLT-4 leukemia
  TGI: > 100 µM
HT29 colon
  TGI: > 100 µM
NCI-H226 lung
  TGI: > 100 µM

## CC(=O)OCC1OC(Nc2[nH]c(=O)n(C)c(=O)c2-c2csc(N)n2)C(OC(C)=O)C(OC(C)=O)C1OC(C)=O (stereo unspecified)
SF-268 CNS
  TGI: > 100 µM
ACHN renal
  TGI: > 100 µM
SF-295 CNS
  TGI: > 100 µM
TK-10 renal
  TGI: > 100 µM
SNB-19 CNS
  TGI: > 100 µM
OVCAR-8 ovarian
  TGI: > 100 µM
MOLT-4 leukemia
  TGI: > 100 µM
HT29 colon
  TGI: > 100 µM
NCI-H226 lung
  TGI: > 100 µM

## CCN(CC)CCNC(=O)c1ccccc1NC(=O)C(=O)Nc1ccccc1C(=O)NCCN(CC)CC
SF-268 CNS
  TGI: > 100 µM
ACHN renal
  TGI: > 100 µM
SF-295 CNS
  TGI: > 100 µM
TK-10 renal
  TGI: > 100 µM
SNB-19 CNS
  TGI: > 100 µM
OVCAR-8 ovarian
  TGI: > 100 µM
MOLT-4 leukemia
  TGI: 74.4 µM
HT29 colon
  TGI: > 100 µM
NCI-H226 lung
  TGI: > 100 µM

## O=C1c2ccccc2C2(O)Nc3cc(O)ccc3C12O (stereo unspecified)
SF-268 CNS
  TGI: > 100 µM
ACHN renal
  TGI: > 100 µM
SF-295 CNS
  TGI: > 100 µM
TK-10 renal
  TGI: > 100 µM
SNB-19 CNS
  TGI: > 100 µM
OVCAR-8 ovarian
  TGI: > 100 µM
MOLT-4 leukemia
  TGI: > 100 µM
HT29 colon
  TGI: > 100 µM
NCI-H226 lung
  TGI: > 100 µM

## CCOc1ccc(NC(=O)CC2SC(=Nc3ccc(Cl)cc3)NC2=O)cc1 (stereo unspecified)
SF-268 CNS
  TGI: > 100 µM
ACHN renal
  TGI: > 100 µM
SF-295 CNS
  TGI: > 100 µM
TK-10 renal
  TGI: > 100 µM
SNB-19 CNS
  TGI: > 100 µM
OVCAR-8 ovarian
  TGI: > 100 µM
MOLT-4 leukemia
  TGI: > 100 µM
HT29 colon
  TGI: > 100 µM
NCI-H226 lung
  TGI: > 100 µM

## C=CCC1OC(C)(C)Oc2ccc(OCOCCOC)cc21 (stereo unspecified)
SF-268 CNS
  TGI: > 100 µM
ACHN renal
  TGI: > 100 µM
SF-295 CNS
  TGI: > 100 µM
TK-10 renal
  TGI: > 100 µM
SNB-19 CNS
  TGI: > 100 µM
OVCAR-8 ovarian
  TGI: > 100 µM
MOLT-4 leukemia
  TGI: > 100 µM
HT29 colon
  TGI: > 100 µM

## COc1cc2c(cc1O)C=NCC2
SF-268 CNS
  TGI: > 100 µM
ACHN renal
  TGI: > 100 µM
SF-295 CNS
  TGI: > 100 µM
TK-10 renal
  TGI: > 100 µM
SNB-19 CNS
  TGI: > 100 µM
OVCAR-8 ovarian
  TGI: > 100 µM
MOLT-4 leukemia
  TGI: > 100 µM
NCI-H226 lung
  TGI: > 100 µM
